Where no end group is shown, it is not given here.
Tests used:
[1] = target: T1, AnkG_repeats (Rattus norvegicus, UniProt O70511); experiment: ITC binding to AnkG_repeats WT; settings: deduced from site mutants and truncations
T1 construct: thioredoxin-His6 (N); made in house; host or cells: Escherichia coli BL21 (DE3)
T1 sequence (O70511 38-855): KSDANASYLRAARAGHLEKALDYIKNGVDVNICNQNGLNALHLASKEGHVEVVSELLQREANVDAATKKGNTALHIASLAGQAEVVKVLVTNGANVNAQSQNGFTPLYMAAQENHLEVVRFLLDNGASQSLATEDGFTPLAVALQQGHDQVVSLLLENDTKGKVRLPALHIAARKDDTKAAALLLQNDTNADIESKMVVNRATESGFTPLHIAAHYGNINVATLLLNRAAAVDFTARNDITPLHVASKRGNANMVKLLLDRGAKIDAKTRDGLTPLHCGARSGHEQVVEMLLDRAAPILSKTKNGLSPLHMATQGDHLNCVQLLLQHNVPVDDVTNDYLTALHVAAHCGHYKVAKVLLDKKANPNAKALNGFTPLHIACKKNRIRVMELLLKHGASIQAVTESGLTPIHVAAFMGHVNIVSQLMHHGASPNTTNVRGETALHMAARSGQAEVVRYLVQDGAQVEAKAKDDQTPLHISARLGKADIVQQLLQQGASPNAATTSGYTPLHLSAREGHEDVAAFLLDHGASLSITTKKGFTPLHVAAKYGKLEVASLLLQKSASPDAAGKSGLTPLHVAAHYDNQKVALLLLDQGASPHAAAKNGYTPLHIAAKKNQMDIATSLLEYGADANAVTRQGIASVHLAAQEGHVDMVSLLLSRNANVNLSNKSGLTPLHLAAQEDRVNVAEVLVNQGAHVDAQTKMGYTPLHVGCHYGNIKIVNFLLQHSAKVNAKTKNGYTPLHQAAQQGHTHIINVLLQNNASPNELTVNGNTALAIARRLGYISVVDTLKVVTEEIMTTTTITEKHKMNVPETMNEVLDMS
Text: (§1) The coding sequences of AnkB_repeats (residues 28–873) were PCR amplified using the full-length human 220 kDa AnkB as the template. The coding sequences of the AnkR constructs, including AnkR_repeats (residues 42–853), and the full length AnkR C-terminal domain (residues 1529–1907), were PCR amplified from a mouse muscle cDNA library. The coding sequence of AnkG_repeats (residues 38–855) were PCR amplified using the full-length rat 190 kDa AnkG as the template. The fusion construct of AnkR_AS and AnkB_repeats was made by standard two-step PCR with a coding sequence of thrombin recognition residues ‘GSLVPRGS’ as the linker. This construct was used to crystallize and determine the complex structure. The same strategy was used in making other fusion constructs, including the Nav1.2_ABD-C/AnkB_repeats_R1–9 fusion construct containing residues 1103–1129 from mouse Nav1.2 and human AnkB residues 28–318 followed by a capping sequence corresponding to the αB of R24 (residues 814–822) and the AnkR_AS/AnkG_repeats fusion construct. For truncation mutations of ANK repeats constructs, the same capping sequence was added to the appropriate region of the C-terminus of each construct for protein stabilization. Mouse Nav1.2 (NP_001092768.1) and mouse neurofascin (CAD65849.1) were used here for studying their interaction with ankyrins. Peptides for mouse KCNQ2 (NP_034741.2, residues 826–845) and mouse Cav1.3 (NP_083257.2, residues 2134–2166) were commercially synthesized. For simplicity, we used human 220 kDa AnkB for the amino acid numbering throughout the manuscript. For the corresponding point mutations made on AnkG_repeats, each residue number should be increased by 10. All point mutations were created using the Quick Change site-directed mutagenesis kit and confirmed by DNA sequencing. […]
(§2) Isothermal titration calorimetry (ITC) measurements were carried out on a VP-ITC MicroCal calorimeter (MicroCal, Northampton, MA) at 25°C. […] The titration data were analyzed using the program Origin 7.0 and fitted by the one-site binding model.

[2] = target: T2, AnkG_repeats F131,F164Q (Rattus norvegicus, UniProt O70511, F141Q/F174Q); experiment: ITC binding to AnkG_repeats FF mutant (site 1); settings: in words
T2 construct: thioredoxin-His6 (N); made in house; host or cells: Escherichia coli BL21 (DE3)
Text: (§3) We next examined the interactions of AnkG_repeats with Nav1.2 and Nfasc using the structure of the ANK repeats/AS complex to design mutations specifically affecting each predicted site. […] To probe the binding sites of Nav1.2 and Nfasc on AnkG, we constructed AnkG_repeat mutants with the corresponding hydrophobic residues in binding site 1 (Phe131 and Phe164 in R4 and R5, termed ‘FF’), site 2 (Ile267 and Leu300 in R8 and R9; ‘IL’), and site 3 (Leu366, Phe399, and Leu432 in R11, R12, and R13; ‘LFL’) substituted with Gln (Figure 3D), and examined their binding to the two targets. […] The mutations in site 3 weakened ANK repeat binding to both targets (Figure 3F, Figure 3—figure supplement 3 and Figure 3—figure supplement 4). […] This conclusion is further supported by the binding of the two targets to various AnkG_repeat truncation mutants (Figure 3F, Figure 3—figure supplement 3 and Figure 3—figure supplement 4).
(§4) The coding sequences of AnkB_repeats (residues 28–873) were PCR amplified using the full-length human 220 kDa AnkB as the template. […]
as §2

[3] = target: T3, AnkG_repeats I267,L300Q (Rattus norvegicus, UniProt O70511, I277Q/L310Q); experiment: ITC binding to AnkG_repeats IL mutant (site 2); settings: in words
T3 construct: thioredoxin-His6 (N); made in house; host or cells: Escherichia coli BL21 (DE3)
Text: as §3, §4, §2

[4] = target: T4, AnkG_repeats L366,F399,L432Q (Rattus norvegicus, UniProt O70511, F409Q/L376Q/L442Q); experiment: ITC binding to AnkG_repeats LFL mutant (site 3); settings: in words
T4 construct: thioredoxin-His6 (N); made in house; host or cells: Escherichia coli BL21 (DE3)
Text: as §3, §4, §2

[5] = target: T1, AnkG_repeats; experiment: Analytical gel filtration of AS-AnkG_repeats fusion with Nav1.2 or Nfasc ABD; format: binding; settings: Superose 12 10/300 GL, 50 mM Tris, 100 mM NaCl, 1 mM EDTA, 1 mM DTT, pH 7.5
Text: as §1, with “ankyrins.” for “ankyrins. Peptides for mouse KCNQ2 (NP_034741.2, residues 826–845) and mouse Cav1.3 (NP_083257.2, residues 2134–2166) were commercially synthesized. For simplicity, we used human 220 kDa AnkB for the amino acid numbering throughout the manuscript. For the corresponding point mutations made on AnkG_repeats, each residue number should be increased by 10. All point mutations were created using the Quick Change site-directed mutagenesis kit and confirmed by DNA sequencing.”

[6] = target: T5, AnkG R1-6 (Rattus norvegicus, UniProt O70511, DEL222-823); experiment: ITC binding to AnkG R1-6 truncation; settings: 25°C, pH 7.5, one-site binding model
T5 construct: thioredoxin-His6 (N); made in house; host or cells: Escherichia coli BL21 (DE3)
Text: (§5) The coding sequences of AnkB_repeats (residues 28–873) were PCR amplified using the full-length human 220 kDa AnkB as the template. The coding sequences of the AnkR constructs, including AnkR_repeats (residues 42–853), and the full length AnkR C-terminal domain (residues 1529–1907), were PCR amplified from a mouse muscle cDNA library. The coding sequence of AnkG_repeats (residues 38–855) were PCR amplified using the full-length rat 190 kDa AnkG as the template. The fusion construct of AnkR_AS and AnkB_repeats was made by standard two-step PCR with a coding sequence of thrombin recognition residues ‘GSLVPRGS’ as the linker. This construct was used to crystallize and determine the complex structure. The same strategy was used in making other fusion constructs, including the Nav1.2_ABD-C/AnkB_repeats_R1–9 fusion construct containing residues 1103–1129 from mouse Nav1.2 and human AnkB residues 28–318 followed by a capping sequence corresponding to the αB of R24 (residues 814–822) and the AnkR_AS/AnkG_repeats fusion construct. […]
as §2

[7] = target: T6, AnkB_repeats WT (Homo sapiens, UniProt Q01484); experiment: Fluorescence polarization binding to AnkB_repeats WT; settings: deduced from ANK repeats WT and site mutants
T6 construct: thioredoxin-His6 (N); made in house; host or cells: Escherichia coli BL21 (DE3)
T6 sequence (Q01484 28-873 isoform Q01484-2): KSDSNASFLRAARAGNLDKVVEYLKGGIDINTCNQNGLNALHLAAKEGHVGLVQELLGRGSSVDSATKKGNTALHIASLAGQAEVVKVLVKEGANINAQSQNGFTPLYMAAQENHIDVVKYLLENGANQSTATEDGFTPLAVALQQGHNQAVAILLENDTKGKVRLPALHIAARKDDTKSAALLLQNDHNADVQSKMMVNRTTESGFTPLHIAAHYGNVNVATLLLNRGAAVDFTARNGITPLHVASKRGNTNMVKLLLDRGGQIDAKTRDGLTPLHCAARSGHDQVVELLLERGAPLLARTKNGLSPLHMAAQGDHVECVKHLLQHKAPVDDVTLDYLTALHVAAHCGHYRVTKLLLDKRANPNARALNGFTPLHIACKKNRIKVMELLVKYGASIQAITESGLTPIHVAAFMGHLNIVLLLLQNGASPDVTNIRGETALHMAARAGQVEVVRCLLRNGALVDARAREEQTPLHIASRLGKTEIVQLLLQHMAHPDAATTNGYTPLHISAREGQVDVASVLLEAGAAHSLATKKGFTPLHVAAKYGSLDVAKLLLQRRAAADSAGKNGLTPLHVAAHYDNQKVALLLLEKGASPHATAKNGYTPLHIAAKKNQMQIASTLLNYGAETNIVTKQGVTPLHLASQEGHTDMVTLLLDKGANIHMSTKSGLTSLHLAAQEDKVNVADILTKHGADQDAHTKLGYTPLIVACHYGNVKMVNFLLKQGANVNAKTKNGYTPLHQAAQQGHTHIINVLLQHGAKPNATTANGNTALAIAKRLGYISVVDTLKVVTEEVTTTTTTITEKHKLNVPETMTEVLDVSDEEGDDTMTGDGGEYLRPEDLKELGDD
Text: as §5, with “construct. For truncation mutations of ANK repeats constructs, the same capping sequence was added to the appropriate region of the C-terminus of each construct for protein stabilization.” for “construct.”
Fluorescence assays were performed on a PerkinElmer LS-55 fiuorimeter equipped with an automated polarizer at 25°C. […]

[8] = target: T7, AnkR_repeats (Mus musculus, UniProt Q02357); experiment: ITC binding to AnkR_repeats; settings: VP-ITC, 25°C, 50 mM Tris, 100 mM NaCl, 1 mM EDTA, 1 mM DTT, pH 7.5, one-site binding model, ND = no detectable binding
T7 construct: thioredoxin-His6 (N); made in house; host or cells: Escherichia coli BL21 (DE3)
Text: as §5, §2

T7 sequence (Q02357 5-816): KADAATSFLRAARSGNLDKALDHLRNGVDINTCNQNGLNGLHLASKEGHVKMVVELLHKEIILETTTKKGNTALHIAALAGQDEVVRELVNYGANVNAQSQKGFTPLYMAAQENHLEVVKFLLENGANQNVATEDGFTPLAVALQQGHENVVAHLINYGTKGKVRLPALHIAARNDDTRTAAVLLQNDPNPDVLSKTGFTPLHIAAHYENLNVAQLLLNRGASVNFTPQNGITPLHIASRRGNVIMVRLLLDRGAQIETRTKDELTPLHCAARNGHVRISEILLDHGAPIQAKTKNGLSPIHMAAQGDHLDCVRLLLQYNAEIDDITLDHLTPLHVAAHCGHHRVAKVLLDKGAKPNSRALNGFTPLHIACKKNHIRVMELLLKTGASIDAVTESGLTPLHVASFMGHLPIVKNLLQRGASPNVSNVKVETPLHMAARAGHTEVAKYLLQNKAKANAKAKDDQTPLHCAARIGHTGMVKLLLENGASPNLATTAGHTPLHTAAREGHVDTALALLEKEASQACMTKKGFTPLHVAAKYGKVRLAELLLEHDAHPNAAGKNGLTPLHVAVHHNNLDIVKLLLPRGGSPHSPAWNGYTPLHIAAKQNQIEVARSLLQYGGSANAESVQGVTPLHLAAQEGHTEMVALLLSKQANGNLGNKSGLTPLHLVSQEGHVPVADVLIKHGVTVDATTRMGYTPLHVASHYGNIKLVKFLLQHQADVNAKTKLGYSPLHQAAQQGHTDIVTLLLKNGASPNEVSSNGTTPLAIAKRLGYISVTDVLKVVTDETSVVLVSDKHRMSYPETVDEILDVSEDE
T5 sequence (O70511 with tags, fused parts or gaps DEL222-823 limits assumed): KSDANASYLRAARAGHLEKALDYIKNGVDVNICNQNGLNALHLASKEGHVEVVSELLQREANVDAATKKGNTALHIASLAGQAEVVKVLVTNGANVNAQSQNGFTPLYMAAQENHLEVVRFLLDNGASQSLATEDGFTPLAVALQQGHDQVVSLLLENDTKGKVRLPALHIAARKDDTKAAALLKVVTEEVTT
T3 sequence (O70511 38-855 I277Q/L310Q): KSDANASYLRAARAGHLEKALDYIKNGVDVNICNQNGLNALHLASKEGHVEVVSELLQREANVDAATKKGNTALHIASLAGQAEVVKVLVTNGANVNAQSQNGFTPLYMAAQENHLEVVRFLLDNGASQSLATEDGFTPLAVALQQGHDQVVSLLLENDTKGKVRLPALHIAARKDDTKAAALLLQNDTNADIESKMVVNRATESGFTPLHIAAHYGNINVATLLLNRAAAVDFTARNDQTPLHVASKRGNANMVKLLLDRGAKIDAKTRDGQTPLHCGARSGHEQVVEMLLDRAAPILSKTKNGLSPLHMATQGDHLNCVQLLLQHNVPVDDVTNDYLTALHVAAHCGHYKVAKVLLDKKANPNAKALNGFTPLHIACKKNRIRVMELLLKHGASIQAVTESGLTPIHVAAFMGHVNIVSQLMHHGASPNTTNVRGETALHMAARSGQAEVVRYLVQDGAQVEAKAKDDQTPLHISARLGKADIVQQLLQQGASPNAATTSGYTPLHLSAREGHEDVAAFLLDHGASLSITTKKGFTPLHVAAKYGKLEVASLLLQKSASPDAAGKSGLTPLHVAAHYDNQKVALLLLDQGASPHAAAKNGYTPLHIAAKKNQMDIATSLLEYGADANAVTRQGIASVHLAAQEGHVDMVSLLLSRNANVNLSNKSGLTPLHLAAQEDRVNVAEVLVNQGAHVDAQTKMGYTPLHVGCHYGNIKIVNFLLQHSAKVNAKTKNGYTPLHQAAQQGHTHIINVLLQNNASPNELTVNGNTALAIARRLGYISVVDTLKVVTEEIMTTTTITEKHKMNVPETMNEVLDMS
T4 sequence (O70511 38-855 L376Q/F409Q/L442Q): as the sequence (O70511 38-855 I277Q/L310Q) above, with Q240I, Q273L, L339Q, F372Q, L405Q counted along it
T2 sequence (O70511 38-855 F141Q/F174Q): as the sequence (O70511 38-855 I277Q/L310Q) above, with F104Q, F137Q, Q240I, Q273L counted along it

**Q.** What does the source list for “SDDSLVDYGEGGEGQFNEDGSFIGQYTV [Nfasc_ABD]”?
**A.** ANK repeat sites used for binding [1]: sites 2 and 3; effect of site 1 mutations on binding [2]: no impact; effect of site 2 mutations on binding [3]: significantly weakened; effect of site 3 mutations on binding [4]: weakened; complex formation with AS-AnkG_repeats fusion protein [5]: No complex peaks formed

**Q.** With “TVTVPIAVGESDFENLNTEEFSSESDM [ABD-C (1103 - 1129)]” as the substance, how does the Kd [6] read?
**A.** 2300 ± 200 nM

**Q.** How did the “ANK repeat sites used for binding” value [7] turn out when “FITC-Cav1.3 peptide: mouse Cav1.3 (NP_083257.2, residues 2134–2166), commercially synthesized (NGDMGPISHRQDYELQDFGPGYSDEEPDPGREE; also: FITC label; UniProt Q99246 2134-2166, looked up, fragment)” was run?
**A.** primarily relies on site 2

**Q.** Which Kd [8] does the source give for “CADQYWNEVAVIDAIPLAATEHDTMLEMSDMQVWSAGLTPSLVTAEDS [AnkR_AS]” here?
**A.** 360 ± 20 nM
